Legend:
[1] = biological target: human recombinant ATX (Homo sapiens, UniProt Q13822); test: Enzyme inhibition test (choline release from LPC, Amplex UltraRed fluorescence); type: biochemical; conditions: 200 μM LPC substrate, 1 hr at room temperature, read-out: Experimental Example 1 human ATX IC50
In short: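 Recombinant human ATX (enzyme solution 0.4 ng/µL) acted on a mix of 200 µM LPC, Amplex UltraRed, peroxidase and choline oxidase in Tris pH 8.0 buffer with BSA and 0.0025% Triton X-100, 1 h at room temperature. Choline was read by fluorescence (Ex 525/Em 598 nm) against a choline chloride standard. IC50 came from % inhibition relative to enzyme-free and inhibitor-free controls.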

[2] = tested on: bleomycin (BLM)-induced lung fibrosis model; test: Mouse bleomycin-induced lung fibrosis model: fibrosis markers in plasma, BALF and lung; type: in vivo, female C57BL/6J mouse; conditions: 30 mg/kg, bid, oral, 14 days
Experimental: [Consideration of Action of ATX Inhibitor on Mouse Bleomycin-Induced Lung Fibrosis Model]
The effectiveness of an ATX inhibitor (Example 5, hereinafter to be referred to as example 5 in the Figures) on bleomycin (BLM)-induced lung fibrosis model was evaluated using, as an index, variation of each fibrosis index marker in the plasma or BALF, or fibrosis related genes in the lung.
8-Week-old mice were grouped in the group constitution shown in Table 24 using a simulation method such that the body weight would become uniform before the previous day of bleomycin administration (SOP/STA/RA-0003). The mice were anesthetized with isoflurane, 0.5 mg/mL of bleomycin solution was intratracheally administered at 50 μL/head to produce a bleomycin-induced lung fibrosis model (1.25 U/kg). In the saline group, physiological saline was administered instead of bleomycin. The ATX inhibitor (Example 5) was orally administered two times per day from the day of bleomycin administration. In addition, the body weight was measured once per day from the day of grouping.
One equivalent of a mixture of 1N NaOH and 0.5% CMC solution (100 μL in total) relative to the ATX inhibitor (Example 5) was added, 10 zirconia beads (φ3 mm) were added, and they were pulverized using a mixer mill MM400 (frequency 28.01/min, pulverization time 10 min). 0.5% CMC was added to […] to give a suspension and the suspension was sonicated for 10 min. The administration dose volume was 10 mL/Kg and the administration dose amount was 30 mg/kg. Administration was performed twice per day and the initial administration was performed 30 min before BLM administration.
animal species: female C57BL/6J mouse, supply company: CHARLES RIVER LABORATORIES JAPAN, INC., number of animals used: 10 per group (age at arrival: 7 weeks old).
At 14 days from the bleomycin administration, plasma, BALF and lung tissue were collected. BALF was recovered and the concentration of LPA (18:2) in BALF (FIG. 6) was measured. After blood was collected from the abdominal vena cava, whole blood was anticoagulated using heparin and centrifuged to collect plasma. Then, the ATX activity (FIG. 5) and SP-D (FIG. 1) in the plasma were measured. Furthermore, the chest was opened and whole lung tissue was collected, and gene expression of each of Col1a1 (FIG. 2), CTGF (FIG. 3) and IL-6 (FIG. 4) in the lung was analyzed. For the gene expression analysis, mRNA was extracted from the lung tissue using TRIzol, reverse transcription was performed using a kit of Life technologies, and qPCR was performed using Tagman probe.
An organic solvent and LPA (17:0) solution as an internal standard substance were added to the collected BALF (200 μL), and the mixture was dried to solidness under reduced pressure at 35° C. […] The analysis sample was separated by reversed-phase column and LPA (18:2) was detected by the QTRAP6500 system (ABSciex). In addition, LPA (18:2) synthesis reference standard was added to PBS buffer used for recovery of BALF and compared with the analytical curve sample that underwent a similar pre-treatment, whereby the concentration of LPA (18:2) contained in BALF was calculated (FIG. 6).
The difference between the saline group and the BLM administration group and the difference between the BLM administration group and the compound administration group were analyzed by the Student's t-test wherein the significance level was 5% on both sides. […]

SMILES: COc1ccc(-c2cnnc(OC[C@H]3CC[C@H](C(F)(F)F)CC3)c2)nc1[C@H]1C[C@@H]1C(=O)O [Example 5, (1S,2S)-2-[3-methoxy-6-(6-{[trans-4-(trifluoromethyl)cyclohexyl]methoxy}pyridazin-4-yl)pyridin-2-yl]cyclopropanecarboxylic Acid]
- IC50 [1]: 1 nM
- SP-D in the plasma ([2]; FIG. 1): suppressed
- production of LPA (C18:2) in BALF ([2]; FIG. 6): suppressive action
- Col1a1 gene expression in the lung ([2]; mRNA in lung tissue, FIG. 2): expression suppressive action
- CTGF gene expression in the lung ([2]; mRNA in lung tissue, FIG. 3): expression suppressive action
- IL-6 gene expression in the lung ([2]; mRNA in lung tissue, FIG. 4): expression suppressive action

Source: patent US11958812B2, “3, 5-disubstituted pyridine and 3, 5-disubstituted pyridazine derivatives and pharmaceutical use of same” (MITSUBISHI TANABE PHARMA CORPORATION, priority 2018, dated 2024)
